The source of these data is patent US12319672B2, “Alpha-D-galactopyranoside derivatives” (Idorsia Pharmaceuticals Ltd, priority 2019, dated 2025).

One experiment deals with human Gal-3 (hGal-3) (Homo sapiens (Human), UniProt P17931). Put plainly: Competitive binding assay: binding of biotinylated hGal-3 to microplate-adsorbed asialofetuin (ASF). Particulars: Activity on hGal-3; mean values of several measurements. Put shortly: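 Biotinylated hGal-3 (300-1000 ng/mL) bound to ASF-coated wells with serially diluted compound, 3 h at 4° C. After washing, bound protein was detected with streptavidin-peroxidase (80 ng/mL, 1 h, 4° C) and ABTS substrate; IC50 values are means of several measurements.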

The next experiment has as its target human Gal-1 (hGal-1). Put plainly: Competitive binding assay: binding of biotinylated hGal-1 to microplate-adsorbed asialofetuin (ASF). Particulars: Activities on hGal-1; mean values of several measurements. An outline of the steps:
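Compounds diluted in DMSO competed with biotinylated hGal-3 or hGal-1 (300-1000 ng/mL) for binding to plate-adsorbed asialofetuin for 3 h at 4° C. Bound galectin was detected with streptavidin-peroxidase (80 ng/mL, 1 h, 4° C) and ABTS substrate; IC50 reported as mean of several measurements.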

Each structure is given as a SMILES string.

Sequence of human Gal-3 (hGal-3) (P17931 whole entry): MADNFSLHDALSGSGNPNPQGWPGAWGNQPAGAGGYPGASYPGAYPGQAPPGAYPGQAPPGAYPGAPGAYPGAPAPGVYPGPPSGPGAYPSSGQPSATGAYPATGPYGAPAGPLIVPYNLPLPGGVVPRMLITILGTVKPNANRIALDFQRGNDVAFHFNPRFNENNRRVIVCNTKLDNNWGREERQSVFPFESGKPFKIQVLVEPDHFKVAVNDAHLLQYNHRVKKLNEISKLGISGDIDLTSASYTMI
Sequence of human Gal-1 (hGal-1) (P09382 2-135 limits assumed): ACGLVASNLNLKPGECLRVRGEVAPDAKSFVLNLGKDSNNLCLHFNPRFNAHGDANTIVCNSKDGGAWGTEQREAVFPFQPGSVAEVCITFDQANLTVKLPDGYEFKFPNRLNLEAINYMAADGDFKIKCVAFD

In general, IC50 refers to the midpoint of a concentration-inhibition curve. As to `CO[C@@H]1[C@@H](n2cc(-c3cc(F)c(F)c(F)c3)nn2)[C@@H](O)[C@@H](CO)O[C@@H]1Cc1cc(C2CCN(S(=O)(=O)C(C)C)CC2)on1` [Example 3.47, (2R,3R,4S,5R,6R)-2-(hydroxymethyl)-6-((5-(1-(isopropylsulfonyl)piperidin-4-yl)isoxazol-3-yl)methyl)-5-methoxy-4-(4-(3,4,5-trifluorophenyl)-1H-1,2,3-triazol-1-yl)tetrahydro-2H-pyran-3-ol], the figures for the IC50 on human Gal-3 (hGal-3) and at human Gal-1 (hGal-1) were 0.05 µM and 0.76 µM, respectively.
In the same order, the values of `CO[C@@H]1[C@@H](n2cc(-c3cc(F)c(F)c(F)c3)nn2)[C@@H](O)[C@@H](CO)O[C@@H]1Cc1cc(C2CCN(C(=O)CC(C)C)CC2)on1` [Example 3.48, 1-(4-(3-(((2R,3R,4S,5R,6R)-5-hydroxy-6-(hydroxymethyl)-3-methoxy-4-(4-(3,4,5-trifluorophenyl)-1H-1,2,3-triazol-1-yl)tetrahydro-2H-pyran-2-yl)methyl)isoxazol-5-yl)piperidin-1-yl)-3-methylbutan-1-one] are 0.041 µM and 0.47 µM.
Turning to `CO[C@@H]1[C@@H](n2cc(-c3cc(F)c(F)c(F)c3)nn2)[C@@H](O)[C@@H](CO)O[C@@H]1Cc1cc(C2CCN(C(=O)C3CCCC3)CC2)on1` [Example 3.49, cyclopentyl(4-(3-(((2R,3R,4S,5R,6R)-5-hydroxy-6-(hydroxymethyl)-3-methoxy-4-(4-(3,4,5-trifluorophenyl)-1H-1,2,3-triazol-1-yl)tetrahydro-2H-pyran-2-yl)methyl)isoxazol-5-yl)piperidin-1-yl)methanone], the figures for the IC50 at human Gal-3 (hGal-3) and at human Gal-1 (hGal-1) were 0.057 µM and 0.53 µM, respectively.
In the same order, the values of `CO[C@@H]1[C@@H](n2cc(-c3cc(F)c(F)c(F)c3)nn2)[C@@H](O)[C@@H](CO)O[C@@H]1Cc1cc(C2CCN(C(=O)C3CCC3)CC2)on1` [Example 3.50, cyclobutyl(4-(3-(((2R,3R,4S,5R,6R)-5-hydroxy-6-(hydroxymethyl)-3-methoxy-4-(4-(3,4,5-trifluorophenyl)-1H-1,2,3-triazol-1-yl)tetrahydro-2H-pyran-2-yl)methyl)isoxazol-5-yl)piperidin-1-yl)methanone] are 0.045 µM and 0.59 µM.
With `CO[C@@H]1[C@@H](n2cc(-c3cc(F)c(F)c(F)c3)nn2)[C@@H](O)[C@@H](CO)O[C@@H]1Cc1cc(C2CCN(C(=O)NC(C)(C)C)CC2)on1` [Example 3.52, N-(tert-butyl)-4-(3-(((2R,3R,4S,5R,6R)-5-hydroxy-6-(hydroxymethyl)-3-methoxy-4-(4-(3,4,5-trifluorophenyl)-1H-1,2,3-triazol-1-yl)tetrahydro-2H-pyran-2-yl)methyl)isoxazol-5-yl)piperidine-1-carboxamide], the IC50 is 0.031 µM at human Gal-3 (hGal-3) and 0.23 µM on human Gal-1 (hGal-1).
Turning to `CO[C@@H]1[C@@H](n2cc(-c3cc(F)c(F)c(F)c3)nn2)[C@@H](O)[C@@H](CO)O[C@@H]1Cc1cc(C2CCN(C(=O)[C@@H](N)C(C)C)CC2)on1` [Example 3.54, (S)-2-amino-1-(4-(3-(((2R,3R,4S,5R,6R)-5-hydroxy-6-(hydroxymethyl)-3-methoxy-4-(4-(3,4,5-trifluorophenyl)-1H-1,2,3-triazol-1-yl)tetrahydro-2H-pyran-2-yl)methyl)isoxazol-5-yl)piperidin-1-yl)-3-methylbutan-1-one], the IC50 on human Gal-3 (hGal-3) was found to be 0.44 µM; at human Gal-1 (hGal-1), 1.51 µM.
As to `CO[C@@H]1[C@@H](n2cc(-c3cc(F)c(F)c(F)c3)nn2)[C@@H](O)[C@@H](CO)O[C@@H]1Cc1cc(C2CCN(S(=O)(=O)N(C)C)CC2)on1` [Example 3.58, 4-(3-(((2R,3R,4S,5R,6R)-5-hydroxy-6-(hydroxymethyl)-3-methoxy-4-(4-(3,4,5-trifluorophenyl)-1H-1,2,3-triazol-1-yl)tetrahydro-2H-pyran-2-yl)methyl)isoxazol-5-yl)-N,N-dimethylpiperidine-1-sulfonamide], the IC50 on human Gal-3 (hGal-3) turned out to be 0.061 µM; on human Gal-1 (hGal-1) it was 1.87 µM.
In the same order, the values of `CO[C@@H]1[C@@H](n2cc(-c3cc(F)c(F)c(F)c3)nn2)[C@@H](O)[C@@H](CO)O[C@@H]1Cc1cc(C2CCN(C(=O)NC3CC3)CC2)on1` [Example 3.59, N-cyclopropyl-4-(3-(((2R,3R,4S,5R,6R)-5-hydroxy-6-(hydroxymethyl)-3-methoxy-4-(4-(3,4,5-trifluorophenyl)-1H-1,2,3-triazol-1-yl)tetrahydro-2H-pyran-2-yl)methyl)isoxazol-5-yl)piperidine-1-carboxamide] are 0.042 µM and 0.98 µM.
The matching figures for `CO[C@@H]1[C@@H](n2cc(-c3cc(F)c(F)c(F)c3)nn2)[C@@H](O)[C@@H](CO)O[C@@H]1C[C@H]1CC(C2CCN(S(=O)(=O)C(C)C)CC2)=NO1` [Example 3.60, (2R,3R,4S,5R,6R)-2-(hydroxymethyl)-6-(((R)-3-(1-(isopropylsulfonyl)piperidin-4-yl)-4,5-dihydroisoxazol-5-yl)methyl)-5-methoxy-4-(4-(3,4,5-trifluorophenyl)-1H-1,2,3-triazol-1-yl)tetrahydro-2H-pyran-3-ol]: 0.37 µM and 5.1 µM.
The matching figures for `CO[C@@H]1[C@@H](n2cc(-c3cc(F)c(F)c(F)c3)nn2)[C@@H](O)[C@@H](CO)O[C@@H]1C[C@@H]1CC(C2CCN(S(=O)(=O)C(C)C)CC2)=NO1` [Example 3.61, (2R,3R,4S,5R,6R)-2-(hydroxymethyl)-6-(((S)-3-(1-(isopropylsulfonyl)piperidin-4-yl)-4,5-dihydroisoxazol-5-yl)methyl)-5-methoxy-4-(4-(3,4,5-trifluorophenyl)-1H-1,2,3-triazol-1-yl)tetrahydro-2H-pyran-3-ol]: 0.072 µM and 1.12 µM.
`CO[C@@H]1[C@@H](n2cc(-c3cc(F)c(F)c(F)c3)nn2)[C@@H](O)[C@@H](CO)O[C@@H]1Cc1cc(C2CCN(S(=O)(=O)N3CCOCC3)CC2)on1` [Example 3.62, (2R,3R,4S,5R,6R)-2-(hydroxymethyl)-5-methoxy-6-((5-(1-(morpholinosulfonyl)piperidin-4-yl)isoxazol-3-yl)methyl)-4-(4-(3,4,5-trifluorophenyl)-1H-1,2,3-triazol-1-yl)tetrahydro-2H-pyran-3-ol]: the results for the IC50 on human Gal-3 (hGal-3) and at human Gal-1 (hGal-1) were 0.045 µM and 1.35 µM, respectively.
In the same order, the values of `CO[C@@H]1[C@@H](n2cc(-c3cc(F)c(F)c(F)c3)nn2)[C@@H](O)[C@@H](CO)O[C@@H]1Cc1cc(C2CCN(S(=O)(=O)N3CCCCC3)CC2)on1` [Example 3.63, (2R,3R,4S,5R,6R)-2-(hydroxymethyl)-5-methoxy-6-((5-(1-(piperidin-1-ylsulfonyl)piperidin-4-yl)isoxazol-3-yl)methyl)-4-(4-(3,4,5-trifluorophenyl)-1H-1,2,3-triazol-1-yl)tetrahydro-2H-pyran-3-ol] are 0.069 µM and 0.56 µM.
The matching figures for `CO[C@@H]1[C@@H](n2cc(-c3cc(F)c(F)c(F)c3)nn2)[C@@H](O)[C@@H](CO)O[C@@H]1Cc1cc(C2CCN(S(=O)(=O)N3CCCC3)CC2)on1` [Example 3.64, (2R,3R,4S,5R,6R)-2-(hydroxymethyl)-5-methoxy-6-((5-(1-(pyrrolidin-1-ylsulfonyl)piperidin-4-yl)isoxazol-3-yl)methyl)-4-(4-(3,4,5-trifluorophenyl)-1H-1,2,3-triazol-1-yl)tetrahydro-2H-pyran-3-ol]: 0.025 µM and 0.76 µM.
For the compound `CO[C@@H]1[C@@H](n2cc(-c3cc(F)c(F)c(F)c3)nn2)[C@@H](O)[C@@H](CO)O[C@@H]1Cc1cc(C2CCN(S(=O)(=O)N3CCC(F)(F)CC3)CC2)on1` [Example 3.65, (2R,3R,4S,5R,6R)-6-((5-(1-((4,4-difluoropiperidin-1-yl)sulfonyl)piperidin-4-yl)isoxazol-3-yl)methyl)-2-(hydroxymethyl)-5-methoxy-4-(4-(3,4,5-trifluorophenyl)-1H-1,2,3-triazol-1-yl)tetrahydro-2H-pyran-3-ol], the IC50 at human Gal-3 (hGal-3) was 0.045 µM; at human Gal-1 (hGal-1), 1.88 µM.
For the compound `CO[C@@H]1[C@@H](n2cc(-c3cc(F)c(F)c(F)c3)nn2)[C@@H](O)[C@@H](CO)O[C@@H]1Cc1cc(C2CCN(C(=O)N3CCCCC3)CC2)on1` [Example 3.66, (4-(3-(((2R,3R,4S,5R,6R)-5-hydroxy-6-(hydroxymethyl)-3-methoxy-4-(4-(3,4,5-trifluorophenyl)-1H-1,2,3-triazol-1-yl)tetrahydro-2H-pyran-2-yl)methyl)isoxazol-5-yl)piperidin-1-yl)(piperidin-1-yl)methanone], the IC50 at human Gal-3 (hGal-3) worked out at 0.14 µM; on human Gal-1 (hGal-1) it was 3.59 µM.
In the same order, the values of `CO[C@@H]1[C@@H](n2cc(-c3cc(F)c(F)c(F)c3)nn2)[C@@H](O)[C@@H](CO)O[C@@H]1Cc1cc(C2CCN(C(=O)N3CCCC3)CC2)on1` [Example 3.67, (4-(3-(((2R,3R,4S,5R,6R)-5-hydroxy-6-(hydroxymethyl)-3-methoxy-4-(4-(3,4,5-trifluorophenyl)-1H-1,2,3-triazol-1-yl)tetrahydro-2H-pyran-2-yl)methyl)isoxazol-5-yl)piperidin-1-yl)(pyrrolidin-1-yl)methanone] are 0.069 µM and 0.92 µM.
As for `CCN(C)C(=O)N1CCC(c2cc(C[C@H]3O[C@H](CO)[C@H](O)[C@H](n4cc(-c5cc(F)c(F)c(F)c5)nn4)[C@H]3OC)no2)CC1` [Example 3.68, N-ethyl-4-(3-(((2R,3R,4S,5R,6R)-5-hydroxy-6-(hydroxymethyl)-3-methoxy-4-(4-(3,4,5-trifluorophenyl)-1H-1,2,3-triazol-1-yl)tetrahydro-2H-pyran-2-yl)methyl)isoxazol-5-yl)-N-methylpiperidine-1-carboxamide], the IC50 turned out to be 0.11 µM at human Gal-3 (hGal-3) and 2.46 µM at human Gal-1 (hGal-1).
